{"source": "paper PMC7550323", "about": "(Clinical Pharmacokinetics, 2020)", "key": {"[1]": {"conditions": "cited from earlier work"}, "c-Kit": {"tested_on": "c-Kit", "conditions": "preclinical evaluations; cited from earlier work"}, "[2]": {"conditions": "for AUC / Cmax / Tmax / half-life: human, plasma, oral; for AUC / Cmax / Tmax: single dose (Day-2)"}, "[3]": {"conditions": "multiple dosing QD (Day 15), 20 mg, n = 3"}, "[4]": {"conditions": "multiple dosing QD (Day 15), 40 mg, n = 2"}, "[5]": {"conditions": "multiple dosing QD (Day 15), 40 mg, n = 12"}, "[6]": {"conditions": "multiple dosing QD (Day 15), 80 mg, n = 3"}}, "note": "Like-named read-outs stand apart in the source and are kept apart here.", "data": [{"smiles": "CCc1nc(C(N)=O)c(Nc2ccc(N3CCC(N4CCN(C)CC4)CC3)c(OC)c2)nc1NC1CCOCC1", "note": "[gilteritinib, Gilteritinib]", "values": [{"measurement": "maximum tolerated dose", "setting": "[1]; R/R AML, QD single agent", "result": 300, "unit": "mg/day"}, {"measurement": "median overall survival duration", "setting": "[1]; doses of ≥ 80 mg/day", "result": 31, "unit": "weeks"}, {"measurement": "overall response rate", "setting": "[1]; doses of ≥ 80 mg/day", "result": 52, "unit": "%"}, {"measurement": "activity against c-Kit", "setting": "c-Kit", "result": "weak activity"}, {"measurement": "dose proportionality of pharmacokinetics", "setting": "[2]; 20 to 450 mg QD, R/R AML", "result": "dose-proportional pharmacokinetics"}, {"measurement": "time at which steady state is achieved, based on Ctrough", "setting": "[2]; QD dosing, visual inspection of median Ctrough", "result": "≤ 15", "unit": "days"}, {"measurement": "AUC", "setting": "[2]; 20 mg, AUC24, Mean (SD), n = 5", "result": 302, "unit": "ng·h/mL"}, {"measurement": "AUC", "setting": "[2]; 20 mg, AUC24, Median (range), n = 5", "result": 262, "unit": "ng·h/mL"}, {"measurement": "Cmax", "setting": "[2]; 20 mg, Mean (SD), n = 5", "result": 28.1, "unit": "ng/mL"}, {"measurement": "Cmax", "setting": "[2]; 20 mg, Median (range), n = 5", "result": 23.7, "unit": "ng/mL"}, {"measurement": "Tmax", "setting": "[2]; 20 mg, Median (range), n = 5", "result": 2, "unit": "h"}, {"measurement": "half-life", "setting": "[2]; 20 mg, t½, Mean (SD), multiple dosing QD (Day 15), 20 mg, n = 3, calculated from Rac", "result": 62.1, "unit": "h"}, {"measurement": "half-life", "setting": "[2]; 20 mg, t½, Median (range), multiple dosing QD (Day 15), 20 mg, n = 3, calculated from Rac", "result": 54.5, "unit": "h"}, {"measurement": "AUC", "setting": "[2]; 40 mg, AUC24, Mean (SD), n = 3", "result": 360, "unit": "ng·h/mL"}, {"measurement": "AUC", "setting": "[2]; 40 mg, AUC24, Median (range), n = 3", "result": 315, "unit": "ng·h/mL"}, {"measurement": "Cmax", "setting": "[2]; 40 mg, Mean (SD), n = 3", "result": 25, "unit": "ng/mL"}, {"measurement": "Cmax", "setting": "[2]; 40 mg, Median (range), n = 3", "result": 17, "unit": "ng/mL"}, {"measurement": "Tmax", "setting": "[2]; 40 mg, Median (range), n = 3", "result": 5.98, "unit": "h"}, {"measurement": "half-life", "setting": "[2]; 40 mg, t½, Mean (SD), multiple dosing QD (Day 15), 40 mg, n = 2, calculated from Rac", "result": 152, "unit": "h"}, {"measurement": "half-life", "setting": "[2]; 40 mg, t½, Median (range), multiple dosing QD (Day 15), 40 mg, n = 2, calculated from Rac", "result": 152, "unit": "h"}, {"measurement": "AUC", "setting": "[2]; 80 mg, AUC24, Mean (SD), n = 3", "result": 1220, "unit": "ng·h/mL"}, {"measurement": "AUC", "setting": "[2]; 80 mg, AUC24, Median (range), n = 3", "result": 995, "unit": "ng·h/mL"}, {"measurement": "Cmax", "setting": "[2]; 80 mg, Mean (SD), n = 3", "result": 75.3, "unit": "ng/mL"}, {"measurement": "Cmax", "setting": "[2]; 80 mg, Median (range), n = 3", "result": 71.5, "unit": "ng/mL"}, {"measurement": "Tmax", "setting": "[2]; 80 mg, Median (range), n = 3", "result": 4, "unit": "h"}, {"measurement": "half-life", "setting": "[2]; 80 mg, t½, Mean (SD), multiple dosing QD (Day 15), 80 mg, n = 3, calculated from Rac", "result": 86.1, "unit": "h"}, {"measurement": "half-life", "setting": "[2]; 80 mg, t½, Median (range), multiple dosing QD (Day 15), 80 mg, n = 3, calculated from Rac", "result": 91, "unit": "h"}, {"measurement": "AUC", "setting": "[2]; 120 mg, AUC24, Mean (SD), n = 3", "result": 2480, "unit": "ng·h/mL"}, {"measurement": "AUC", "setting": "[2]; 120 mg, AUC24, Median (range), n = 3", "result": 1390, "unit": "ng·h/mL"}, {"measurement": "Cmax", "setting": "[2]; 120 mg, Mean (SD), n = 3", "result": 137, "unit": "ng/mL"}, {"measurement": "Cmax", "setting": "[2]; 120 mg, Median (range), n = 3", "result": 85.7, "unit": "ng/mL"}, {"measurement": "Tmax", "setting": "[2]; 120 mg, Median (range), n = 3", "result": 2.1, "unit": "h"}, {"measurement": "half-life", "setting": "[2]; 120 mg, t½, Mean (SD), multiple dosing QD (Day 15), 120 mg, n = 3, calculated from Rac", "result": 45.9, "unit": "h"}, {"measurement": "half-life", "setting": "[2]; 120 mg, t½, Median (range), multiple dosing QD (Day 15), 120 mg, n = 3, calculated from Rac", "result": 44.9, "unit": "h"}, {"measurement": "AUC", "setting": "[2]; 200 mg, AUC24, Mean (SD), n = 3", "result": 3020, "unit": "ng·h/mL"}, {"measurement": "AUC", "setting": "[2]; 200 mg, AUC24, Median (range), n = 3", "result": 2540, "unit": "ng·h/mL"}, {"measurement": "Cmax", "setting": "[2]; 200 mg, Mean (SD), n = 3", "result": 168, "unit": "ng/mL"}, {"measurement": "Cmax", "setting": "[2]; 200 mg, Median (range), n = 3", "result": 149, "unit": "ng/mL"}, {"measurement": "Tmax", "setting": "[2]; 200 mg, Median (range), n = 3", "result": 5.2, "unit": "h"}, {"measurement": "half-life", "setting": "[2]; 200 mg, t½, Mean (SD), multiple dosing QD (Day 15), 200 mg, n = 2, calculated from Rac", "result": 142, "unit": "h"}, {"measurement": "half-life", "setting": "[2]; 200 mg, t½, Median (range), multiple dosing QD (Day 15), 200 mg, n = 2, calculated from Rac", "result": 142, "unit": "h"}, {"measurement": "AUC", "setting": "[2]; 300 mg, AUC24, Mean (SD), n = 3", "result": 4160, "unit": "ng·h/mL"}, {"measurement": "AUC", "setting": "[2]; 300 mg, AUC24, Median (range), n = 3", "result": 2450, "unit": "ng·h/mL"}, {"measurement": "Cmax", "setting": "[2]; 300 mg, Mean (SD), n = 3", "result": 204, "unit": "ng/mL"}, {"measurement": "Cmax", "setting": "[2]; 300 mg, Median (range), n = 3", "result": 137, "unit": "ng/mL"}, {"measurement": "Tmax", "setting": "[2]; 300 mg, Median (range), n = 3", "result": 6.1, "unit": "h"}, {"measurement": "half-life", "setting": "[2]; 300 mg, t½, Mean (SD), multiple dosing QD (Day 15), 300 mg, n = 3, calculated from Rac", "result": 142, "unit": "h"}, {"measurement": "half-life", "setting": "[2]; 300 mg, t½, Median (range), multiple dosing QD (Day 15), 300 mg, n = 3, calculated from Rac", "result": 159, "unit": "h"}, {"measurement": "AUC", "setting": "[2]; 450 mg, AUC24, Mean (SD), n = 2", "result": 3320, "unit": "ng·h/mL"}, {"measurement": "AUC", "setting": "[2]; 450 mg, AUC24, Median (range), n = 2", "result": 3320, "unit": "ng·h/mL"}, {"measurement": "Cmax", "setting": "[2]; 450 mg, Mean (SD), n = 3", "result": 208, "unit": "ng/mL"}, {"measurement": "Cmax", "setting": "[2]; 450 mg, Median (range), n = 3", "result": 216, "unit": "ng/mL"}, {"measurement": "Tmax", "setting": "[2]; 450 mg, Median (range), n = 3", "result": 5.8, "unit": "h"}, {"measurement": "half-life", "setting": "[2]; estimated t1/2, across dose cohorts, multiple dosing", "result": "45 to 159", "unit": "h"}, {"measurement": "accumulation based on the accumulation index", "setting": "[2]; multiple dosing QD", "result": "up to ten-fold accumulation"}, {"measurement": "Rac (accumulation ratio), Mean (SD)", "setting": "[2]; [3]", "result": "4.3 (1.069)"}, {"measurement": "Rac (accumulation ratio), Median (range)", "setting": "[2]; [3]", "result": "3.8 (3.5–5.5)"}, {"measurement": "Ctrough, Mean (SD)", "setting": "[2]; multiple dosing QD (Day 15), 20 mg, n = 11", "result": "43.5 (23.5) ng/mL"}, {"measurement": "Rac (accumulation ratio), Mean (SD)", "setting": "[2]; [4]", "result": "9.6 (7.8)"}, {"measurement": "Rac (accumulation ratio), Median (range)", "setting": "[2]; [4]", "result": "9.6 (4.2–15.1)"}, {"measurement": "Ctrough, Mean (SD)", "setting": "[2]; [5]", "result": "72.9 (40.1) ng/mL"}, {"measurement": "Ctrough, Median (range)", "setting": "[2]; [5]", "result": "66.6 (26.7–166) ng/mL"}, {"measurement": "Rac (accumulation ratio), Mean (SD)", "setting": "[2]; [6]", "result": "5.7 (1.4)"}, {"measurement": "Rac (accumulation ratio), Median (range)", "setting": "[2]; [6]", "result": "6.0 (4.1–6.97)"}, {"measurement": "Ctrough, Mean (SD)", "setting": "[2]; multiple dosing QD (Day 15), 80 mg, n = 20", "result": "165 (88.0) ng/mL"}]}]}
